Patent US20210007351A1 (priority 2018, published 2021)

Tested on: Phytophthora infestans Genotype 13_A2
Format: cell-based
Settings: 0.5%, 1% and 2% (all concentrations) in CMA with 0.5% DMSO; 7 days and 14 days post inoculation; 23 °C

| Structure (SMILES) | average mycelial extension into amended CMA agar (growth) |
| --- | --- |
| CC1(C)C2CCC1(C)C(O)C2O (racemic) [(+/−)-exo,exo-2,3-Camphanediol] | heavily reduced or absent altogether |
| C=CCc1ccc(O)c(OC)c1 [Eugenol, eugenol] | heavily reduced or absent altogether |
